Data taken from patent publication US7829585B2, “Antifungal agent containing pyridine derivative” (Eisai R&D Management Co., Ltd., priority 2005, dated 2010).
≈ marks a conversion by molar mass, not a printed value.

Columns and labels:
[1] = test system: A. fumigatus Tsukuba strain; test: Anti-Aspergillus activity, MIC measurement (broth dilution, visual inspection); format: cell-based; conditions: RPMI1640, 48 hours at 35° C., read-out: Anti-Aspergillus activity (minimum growth inhibitory concentration, MIC)
Method: (§1) For the C. albicans E81022 strain, a fungal suspension from a standing culture 48 hours at 30° C. in a Sabouraud dextrose liquid culture medium (SDB) was diluted 10000-fold with 1.3-times concentrated RPMI1640 medium to prepare a fungal suspension containing 1 to 2×10^4 cells/ml. For the A. fumigatus Tsukuba strain, −80° C. stored strain was diluted 1000-fold with 1.3-times concentrated RPMI1640 medium to prepare a fungal suspension containing 2 to 3×10^3 cells/ml.
(§2) Using a U-shaped bottomed 96-well plates, 8 samples/plate (A to H) of sample dilution solutions were prepared. On the first row was dispensed 240 μl of sterile distilled water, and on the 2nd to 12th row were dispersed 125 μL of 4% dimethylsulfoxide solution. Weighed sample was dissolved in dimethylsulfoxide to prepare a 5 mg/ml solution followed by adding 10 μL of the solutions to the first row of the prepared plates and preparing 12-step serial 2-fold dilutions (125 μL of solution+125 μL of 4% dimethylsulfoxide solution) on the plates.
(§3) The fungal suspension prepared in (1) was used in the amount of 75 μL/well to inoculate the flat-bottomed 96-well plates containing 25 μL/well of the test compound prepared in (2), and a standing culture was carried out aerobically for 48 hours at 35° C.

[2] = test system: C. albicans E81022 strain; test: Anti-Candida activity, MIC measurement (broth dilution, visual inspection); format: cell-based; conditions: Candida albicans, E81022STRAIN, C. albicans E81022, RPMI1640, 48 hours at 35° C., read-out: Anti-Candida activity (minimum growth inhibitory concentration, MIC)
Method: as §1, §2, §3

[3] = test system: C. albicans E81022 strain; test: Experimental systemic Candida infection model in mice; format: in vivo; conditions: female ICR mice, C. albicans E81022 i.v. 4×10^6 cells/mouse; 10 mg/kg peroral, three times every 4 hours; observed until 14 days after infection
Method: A standing culture of C. albicans E81022 strain was static cultured for 48 hours at 30° C. in Sabouraud's dextrose agar (SDA), and the recovered fungal cells were suspended in sterilized physiological saline. By counting the fungal number on cytometry plate, the suspension was diluted to 2×10^7 cells/mL with sterilized saline to serve fungal inoculant.
The fungal inoculum was used in the amounts of 0.2 mL to inoculate 4.5 to 5.5 week-old femal ICR mice in the tail vein (4×10^6 cells/mouse).
From 0.5 to 1 hour after fungal inoculation, 0.2 mL of agent solution (dissolved or suspended in sterilized saline containing 6.5% dimethylsulfoxide and 3.5% Tween 80) was administered into the stomach using a peroral probe, three times every 4 hours. The agent concentration was set at 10 mg/kg and the number of animals in one group was 5 animals.
The protective effect was determined by observing life/death until 14 days after infection and calculating the mean survival days.

SMILES | MIC [1] | MIC [2] | Mean Survival Days [3]
CCOc1ccc2cc(CNC(=O)c3ccc(N)nc3N)oc2c1 [Example 2, 2,6-Diamino-N-(6-ethoxy-benzofuran-2-ylmethyl)-nicotinamide] | 3.13 µg/mL (≈ 9.59 µM) | 1.56 µg/mL (≈ 4.78 µM) | 8.6 days
Nc1ccc(C(=O)NCc2cc3ccc(OCc4ccccc4)cc3o2)c(N)n1 [Example 1, 2,6-Diamino-N-(6-benzyloxy-benzofuran-2-ylmethyl)-nicotinamide] | 1.56 µg/mL (≈ 4.02 µM) | 0.39 µg/mL (≈ 1 µM) | 9.6 days
Nc1ccc(C(=O)NCc2cc3ccc(OCC4CC4)cc3o2)c(N)n1 [Example 3, 2,6-Diamino-N-(6-cyclopropylmethoxy-benzofuran-2-ylmethyl)-nicotinamide] | 0.78 µg/mL (≈ 2.21 µM) | 1.56 µg/mL (≈ 4.43 µM) | 8.6 days
COCc1ccc(C(=O)NCc2cc3ccc(OCc4ccccc4)cc3o2)c(N)n1 [Example 4, 2-Amino-N-(6-benzyloxy-benzofuran-2-ylmethyl)-6-methoxymethyl-nicotinamide] | 3.13 µg/mL (≈ 7.5 µM) | 0.78 µg/mL (≈ 1.87 µM) | 10.2 days
C=CCOc1ccc2cc(CNC(=O)c3ccc(COC)nc3N)oc2c1 [Example 5, N-(6-Allyloxy-benzofuran-2-ylmethyl)-2-amino-6-methoxymethyl-nicotinamide] | 0.78 µg/mL (≈ 2.12 µM) | 0.78 µg/mL (≈ 2.12 µM) | 12.8 days
COCc1ccc(C(=O)NCc2cc3cc(OCc4ccccc4)ccc3o2)c(N)n1 [Example 7, 2-Amino-N-(5-benzyloxy-benzofuran-2-ylmethyl)-6-methoxymethyl-nicotinamide] | 1.56 µg/mL (≈ 3.74 µM) | 0.39 µg/mL (≈ 0.934 µM) | 8.8 days
COCc1ccc(C(=O)NCc2cc3ccc(OCC4CC4)cc3o2)c(N)n1 [Example 6, 2-Amino-N-(6-cyclopropylmethoxy-benzofuran-2-ylmethyl)-6-methoxymethyl-nicotinamide] | 1.56 µg/mL (≈ 4.09 µM) | 0.78 µg/mL (≈ 2.04 µM) | 11.4 days
C=CCOc1ccc2cc(CNC(=O)c3ccc(N)nc3N)oc2c1 [Example 9, N-(6-Allyloxy-benzofuran-2-ylmethyl)-2,6-diamino-nicotinamide] | – | – | 9.6 days
Nc1ccc(C(=O)NCc2cc3cc(OCC4CC4)ccc3o2)c(N)n1 [Example 53, 2,6-Diamino-N-(5-cyclopropylmethoxy-benzofuran-2-ylmethyl)-nicotinamide] | 6.25 µg/mL (≈ 17.7 µM) | 6.25 µg/mL (≈ 17.7 µM) | –
C=CCOc1ccc2oc(CNC(=O)c3ccc(N)nc3N)cc2c1 [Example 52, N-(5-Allyloxy-benzofuran-2-ylmethyl)-2,6-diamino-nicotinamide] | 0.78 µg/mL (≈ 2.31 µM) | 1.56 µg/mL (≈ 4.61 µM) | –
COCc1ccc(C(=O)NCc2cc3ccc(OCc4cccc(F)c4)cc3o2)c(N)n1 [Example 43, 2-Amino-N-(6-(3-fluoro-benzyloxy)-benzofuran-2-ylmethyl)-6-methoxymethyl-nicotinamide] | 6.25 µg/mL (≈ 14.4 µM) | 0.78 µg/mL (≈ 1.79 µM) | –
